According to ChEMBL document CHEMBL1201862, “PubChem BioAssay data set” (2004):
Activity calls are given as the source filed them.

Columns and labels:
Assay type in all cases: functional
[1] = molecular target: Serine/threonine-protein kinase PAK 4 (Homo sapiens, UniProt O96013);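 further: value obtained within a kinome profiling panel in which PAK4 was one of the panel members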
[2] = molecular target: High affinity nerve growth factor receptor (Homo sapiens, UniProt P04629);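 further: NTRK1 tested as one member of a kinome-wide profiling panel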
[3] = molecular target: 5'-AMP-activated protein kinase catalytic subunit alpha-1 (Homo sapiens, UniProt Q13131)
[4] = molecular target: Dual specificity protein kinase CLK4 (Homo sapiens, UniProt Q9HAZ1)
[5] = molecular target: Tyrosine-protein kinase Fyn (Homo sapiens, UniProt P06241)
[6] = molecular target: Serine/threonine-protein kinase 3 (Homo sapiens, UniProt Q13188);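 further: measured as one member of a kinome-wide kinase panel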
[7] = molecular target: Tyrosine-protein kinase JAK2 (Homo sapiens, UniProt O60674);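 further: JAK2 tested as one member of a kinase panel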
[8] = molecular target: Ribosomal protein S6 kinase alpha-3 (Homo sapiens, UniProt P51812);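 further: measured within a kinome-wide profiling panel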
[9] = molecular target: Death-associated protein kinase 3 (Homo sapiens, UniProt O43293);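 further: measured as one member of a kinome-wide profiling panel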
[10] = molecular target: Rho-associated protein kinase 1 (Homo sapiens, UniProt Q13464);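 further: measured within a broad kinome-wide panel profiling many kinases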
[11] = molecular target: BDNF/NT-3 growth factors receptor (Homo sapiens, UniProt Q16620);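 further: NTRK2 measured as one member of a broad kinome-wide kinase profiling panel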
[12] = molecular target: Vascular endothelial growth factor receptor 2 (Homo sapiens, UniProt P35968)
Chain of Vascular endothelial growth factor receptor 2 (P35968 whole entry): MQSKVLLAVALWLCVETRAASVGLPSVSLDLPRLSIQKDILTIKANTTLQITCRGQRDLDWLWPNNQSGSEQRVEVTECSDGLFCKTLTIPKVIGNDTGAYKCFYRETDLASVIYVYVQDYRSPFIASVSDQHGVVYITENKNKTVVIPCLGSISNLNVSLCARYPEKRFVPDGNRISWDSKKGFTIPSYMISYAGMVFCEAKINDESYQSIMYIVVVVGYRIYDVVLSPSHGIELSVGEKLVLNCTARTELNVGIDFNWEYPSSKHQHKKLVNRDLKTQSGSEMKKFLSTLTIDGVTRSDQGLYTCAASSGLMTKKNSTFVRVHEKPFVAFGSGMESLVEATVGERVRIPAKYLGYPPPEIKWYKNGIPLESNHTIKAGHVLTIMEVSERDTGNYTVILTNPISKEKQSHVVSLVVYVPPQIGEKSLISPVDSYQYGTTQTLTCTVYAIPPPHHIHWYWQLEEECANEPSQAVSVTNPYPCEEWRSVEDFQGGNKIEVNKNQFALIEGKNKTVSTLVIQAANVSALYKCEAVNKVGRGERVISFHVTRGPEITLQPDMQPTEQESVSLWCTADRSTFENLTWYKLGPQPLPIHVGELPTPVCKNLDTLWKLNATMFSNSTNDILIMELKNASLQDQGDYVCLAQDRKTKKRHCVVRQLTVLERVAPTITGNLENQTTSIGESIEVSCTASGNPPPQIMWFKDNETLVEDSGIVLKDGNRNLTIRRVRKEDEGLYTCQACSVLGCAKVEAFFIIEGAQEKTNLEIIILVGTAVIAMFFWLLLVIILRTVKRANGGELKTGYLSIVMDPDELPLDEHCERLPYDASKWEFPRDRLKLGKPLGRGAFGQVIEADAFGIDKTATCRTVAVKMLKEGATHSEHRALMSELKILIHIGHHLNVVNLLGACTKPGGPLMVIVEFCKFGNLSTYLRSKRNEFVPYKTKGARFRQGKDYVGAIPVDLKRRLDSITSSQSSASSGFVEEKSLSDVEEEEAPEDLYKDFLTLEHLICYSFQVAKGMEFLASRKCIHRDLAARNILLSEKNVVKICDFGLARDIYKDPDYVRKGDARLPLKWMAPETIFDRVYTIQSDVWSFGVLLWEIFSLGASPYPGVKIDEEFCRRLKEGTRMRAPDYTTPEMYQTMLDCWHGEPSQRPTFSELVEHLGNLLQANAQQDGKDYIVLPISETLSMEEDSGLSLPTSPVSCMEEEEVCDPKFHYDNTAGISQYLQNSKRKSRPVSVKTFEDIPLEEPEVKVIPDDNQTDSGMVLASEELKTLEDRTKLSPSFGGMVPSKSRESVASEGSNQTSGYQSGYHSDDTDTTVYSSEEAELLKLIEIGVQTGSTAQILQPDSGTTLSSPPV

[13] = molecular target: Macrophage colony-stimulating factor 1 receptor (Homo sapiens, UniProt P07333);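 further: value comes from the Navigating the Kinome screening panel, CSF1R member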
Chain of Macrophage colony-stimulating factor 1 receptor (P07333 whole entry): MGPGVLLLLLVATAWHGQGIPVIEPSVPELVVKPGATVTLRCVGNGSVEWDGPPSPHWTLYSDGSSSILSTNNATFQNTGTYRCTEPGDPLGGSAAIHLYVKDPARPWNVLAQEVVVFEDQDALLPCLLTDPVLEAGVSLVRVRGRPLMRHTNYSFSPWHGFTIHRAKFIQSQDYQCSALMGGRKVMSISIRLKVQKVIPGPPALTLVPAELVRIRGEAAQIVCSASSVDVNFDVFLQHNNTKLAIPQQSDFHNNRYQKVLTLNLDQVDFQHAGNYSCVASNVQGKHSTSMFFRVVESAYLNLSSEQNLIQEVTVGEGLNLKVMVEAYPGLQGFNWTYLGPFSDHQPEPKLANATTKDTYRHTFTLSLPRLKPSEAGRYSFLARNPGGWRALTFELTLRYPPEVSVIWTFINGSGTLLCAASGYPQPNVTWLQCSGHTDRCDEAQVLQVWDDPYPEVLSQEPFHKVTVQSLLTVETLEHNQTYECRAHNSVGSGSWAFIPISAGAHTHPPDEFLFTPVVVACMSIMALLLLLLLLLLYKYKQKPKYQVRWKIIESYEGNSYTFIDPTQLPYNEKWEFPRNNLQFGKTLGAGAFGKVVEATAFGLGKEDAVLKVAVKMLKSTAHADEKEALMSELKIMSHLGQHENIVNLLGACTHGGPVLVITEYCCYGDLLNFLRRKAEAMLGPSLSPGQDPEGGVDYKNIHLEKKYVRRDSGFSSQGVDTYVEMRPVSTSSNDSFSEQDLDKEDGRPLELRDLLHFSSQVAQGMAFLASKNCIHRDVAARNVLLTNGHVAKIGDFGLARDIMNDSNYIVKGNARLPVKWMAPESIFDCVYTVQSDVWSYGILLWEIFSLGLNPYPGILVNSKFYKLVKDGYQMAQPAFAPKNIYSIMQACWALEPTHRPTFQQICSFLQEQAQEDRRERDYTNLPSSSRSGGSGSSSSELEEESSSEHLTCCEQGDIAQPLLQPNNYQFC

[14] = molecular target: T1, Receptor-type tyrosine-protein kinase FLT3 (Homo sapiens, UniProt P36888);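 further: FLT3 was tested as one member of a kinome-wide kinase panel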
T1 sequence (P36888 whole entry): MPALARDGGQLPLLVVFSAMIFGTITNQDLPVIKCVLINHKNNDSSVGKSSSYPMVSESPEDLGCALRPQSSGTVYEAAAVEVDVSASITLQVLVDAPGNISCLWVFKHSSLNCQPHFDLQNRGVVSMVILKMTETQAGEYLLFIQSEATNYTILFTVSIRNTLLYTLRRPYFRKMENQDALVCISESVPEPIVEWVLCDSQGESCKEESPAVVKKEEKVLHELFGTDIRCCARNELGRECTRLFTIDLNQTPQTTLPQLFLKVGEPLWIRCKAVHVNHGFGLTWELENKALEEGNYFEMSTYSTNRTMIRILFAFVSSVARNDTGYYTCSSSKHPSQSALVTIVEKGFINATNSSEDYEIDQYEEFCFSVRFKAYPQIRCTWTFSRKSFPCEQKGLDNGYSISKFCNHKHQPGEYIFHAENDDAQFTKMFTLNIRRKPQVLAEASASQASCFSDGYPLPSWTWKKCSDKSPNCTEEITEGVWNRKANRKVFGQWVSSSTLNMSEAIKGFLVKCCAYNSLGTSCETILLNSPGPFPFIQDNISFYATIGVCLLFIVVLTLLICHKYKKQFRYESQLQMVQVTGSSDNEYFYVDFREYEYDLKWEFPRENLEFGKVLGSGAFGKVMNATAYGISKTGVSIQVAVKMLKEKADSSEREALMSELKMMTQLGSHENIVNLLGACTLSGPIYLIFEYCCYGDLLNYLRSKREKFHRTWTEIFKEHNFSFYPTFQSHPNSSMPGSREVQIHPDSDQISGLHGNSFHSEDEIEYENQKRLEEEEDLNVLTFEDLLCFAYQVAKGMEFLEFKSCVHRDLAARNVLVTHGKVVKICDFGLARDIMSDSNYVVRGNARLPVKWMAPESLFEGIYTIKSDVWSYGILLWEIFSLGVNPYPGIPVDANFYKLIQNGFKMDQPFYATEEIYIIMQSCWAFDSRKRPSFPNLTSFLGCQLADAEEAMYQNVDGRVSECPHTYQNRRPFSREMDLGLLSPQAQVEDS

[15] = molecular target: Mitogen-activated protein kinase 14 (Homo sapiens, UniProt Q16539);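 further: part of a kinome-wide panel, MAPK14 entry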
[16] = molecular target: Aurora kinase B (Homo sapiens, UniProt Q96GD4)
[17] = molecular target: Vascular endothelial growth factor receptor 1 (Homo sapiens, UniProt P17948);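 further: measured within a kinome-wide profiling panel, FLT1 as the panel member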
[18] = molecular target: Aurora kinase A (Homo sapiens, UniProt O14965);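 further: value from the Navigating the Kinome kinase panel profiling, panel entry STK6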
[19] = molecular target: Tyrosine-protein kinase JAK3 (Homo sapiens, UniProt P52333)
Chain of Tyrosine-protein kinase JAK3 (P52333 whole entry): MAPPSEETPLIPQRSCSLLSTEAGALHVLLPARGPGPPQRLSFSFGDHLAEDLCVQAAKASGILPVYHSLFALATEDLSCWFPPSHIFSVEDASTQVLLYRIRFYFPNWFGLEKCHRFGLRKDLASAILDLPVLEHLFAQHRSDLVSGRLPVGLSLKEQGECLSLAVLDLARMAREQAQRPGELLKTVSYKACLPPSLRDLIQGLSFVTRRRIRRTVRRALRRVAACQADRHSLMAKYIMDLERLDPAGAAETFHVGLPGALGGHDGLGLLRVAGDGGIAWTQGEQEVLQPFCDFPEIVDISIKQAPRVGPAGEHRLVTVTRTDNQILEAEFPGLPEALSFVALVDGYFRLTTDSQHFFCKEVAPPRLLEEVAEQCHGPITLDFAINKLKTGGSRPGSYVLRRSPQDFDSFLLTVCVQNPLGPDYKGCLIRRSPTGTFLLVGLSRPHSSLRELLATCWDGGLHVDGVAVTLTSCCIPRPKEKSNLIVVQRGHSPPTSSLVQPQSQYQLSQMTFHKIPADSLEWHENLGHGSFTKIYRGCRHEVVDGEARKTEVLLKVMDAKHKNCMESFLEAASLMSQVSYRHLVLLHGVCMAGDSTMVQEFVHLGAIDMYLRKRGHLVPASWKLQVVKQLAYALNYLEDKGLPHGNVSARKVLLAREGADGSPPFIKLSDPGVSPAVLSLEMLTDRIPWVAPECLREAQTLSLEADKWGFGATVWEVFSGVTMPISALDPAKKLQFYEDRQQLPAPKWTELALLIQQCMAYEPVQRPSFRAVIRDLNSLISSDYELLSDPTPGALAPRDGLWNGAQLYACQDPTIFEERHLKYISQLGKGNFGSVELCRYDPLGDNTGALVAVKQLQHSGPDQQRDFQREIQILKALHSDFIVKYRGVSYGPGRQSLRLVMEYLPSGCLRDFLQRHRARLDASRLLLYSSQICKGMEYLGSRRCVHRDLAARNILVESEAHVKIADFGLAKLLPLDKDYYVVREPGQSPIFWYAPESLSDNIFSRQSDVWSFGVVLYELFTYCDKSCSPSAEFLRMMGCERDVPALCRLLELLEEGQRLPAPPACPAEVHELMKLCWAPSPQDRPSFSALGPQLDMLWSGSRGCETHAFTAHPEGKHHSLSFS

[20] = molecular target: Serine/threonine-protein kinase pim-1 (Homo sapiens, UniProt P11309)
Chain of Serine/threonine-protein kinase pim-1 (P11309 whole entry): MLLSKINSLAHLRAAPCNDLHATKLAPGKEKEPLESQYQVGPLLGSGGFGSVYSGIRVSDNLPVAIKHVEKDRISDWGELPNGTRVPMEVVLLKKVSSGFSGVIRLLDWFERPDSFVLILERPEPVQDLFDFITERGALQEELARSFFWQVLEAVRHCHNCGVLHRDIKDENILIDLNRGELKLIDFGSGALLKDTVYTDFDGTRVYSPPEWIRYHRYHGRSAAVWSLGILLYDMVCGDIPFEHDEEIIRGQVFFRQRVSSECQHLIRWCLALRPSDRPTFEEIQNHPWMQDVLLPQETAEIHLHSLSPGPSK

[21] = molecular target: cAMP-dependent protein kinase catalytic subunit alpha (Homo sapiens, UniProt P17612)
[22] = molecular target: Mitogen-activated protein kinase 9 (Homo sapiens, UniProt P45984);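 further: value from a kinome panel profiling assay, MAPK9 panel entry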
[23] = molecular target: Glycogen synthase kinase-3 beta (Homo sapiens, UniProt P49841);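 further: value comes from a broad kinome profiling panel, with GSK3B as the panel member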
[24] = molecular target: Glycogen synthase kinase-3 alpha (Homo sapiens, UniProt P49840);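 further: GSK3A result taken from a broad kinome-wide kinase panel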
Chain of Glycogen synthase kinase-3 alpha (P49840 whole entry): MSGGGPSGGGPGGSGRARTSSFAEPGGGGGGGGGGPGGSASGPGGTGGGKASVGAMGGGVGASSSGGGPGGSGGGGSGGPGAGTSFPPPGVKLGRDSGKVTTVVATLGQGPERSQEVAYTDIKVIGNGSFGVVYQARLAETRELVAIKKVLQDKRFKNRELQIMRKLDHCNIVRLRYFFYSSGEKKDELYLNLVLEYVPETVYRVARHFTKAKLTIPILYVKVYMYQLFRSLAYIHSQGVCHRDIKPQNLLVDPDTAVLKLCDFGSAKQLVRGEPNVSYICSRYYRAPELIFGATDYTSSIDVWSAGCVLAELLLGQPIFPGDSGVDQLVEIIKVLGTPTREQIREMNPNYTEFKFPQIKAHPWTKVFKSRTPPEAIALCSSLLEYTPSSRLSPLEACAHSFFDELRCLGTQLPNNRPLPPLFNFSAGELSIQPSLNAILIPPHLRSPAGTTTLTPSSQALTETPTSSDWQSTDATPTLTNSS

[25] = molecular target: Fibroblast growth factor receptor 1 (Homo sapiens, UniProt P11362)
Chain of Fibroblast growth factor receptor 1 (P11362 whole entry): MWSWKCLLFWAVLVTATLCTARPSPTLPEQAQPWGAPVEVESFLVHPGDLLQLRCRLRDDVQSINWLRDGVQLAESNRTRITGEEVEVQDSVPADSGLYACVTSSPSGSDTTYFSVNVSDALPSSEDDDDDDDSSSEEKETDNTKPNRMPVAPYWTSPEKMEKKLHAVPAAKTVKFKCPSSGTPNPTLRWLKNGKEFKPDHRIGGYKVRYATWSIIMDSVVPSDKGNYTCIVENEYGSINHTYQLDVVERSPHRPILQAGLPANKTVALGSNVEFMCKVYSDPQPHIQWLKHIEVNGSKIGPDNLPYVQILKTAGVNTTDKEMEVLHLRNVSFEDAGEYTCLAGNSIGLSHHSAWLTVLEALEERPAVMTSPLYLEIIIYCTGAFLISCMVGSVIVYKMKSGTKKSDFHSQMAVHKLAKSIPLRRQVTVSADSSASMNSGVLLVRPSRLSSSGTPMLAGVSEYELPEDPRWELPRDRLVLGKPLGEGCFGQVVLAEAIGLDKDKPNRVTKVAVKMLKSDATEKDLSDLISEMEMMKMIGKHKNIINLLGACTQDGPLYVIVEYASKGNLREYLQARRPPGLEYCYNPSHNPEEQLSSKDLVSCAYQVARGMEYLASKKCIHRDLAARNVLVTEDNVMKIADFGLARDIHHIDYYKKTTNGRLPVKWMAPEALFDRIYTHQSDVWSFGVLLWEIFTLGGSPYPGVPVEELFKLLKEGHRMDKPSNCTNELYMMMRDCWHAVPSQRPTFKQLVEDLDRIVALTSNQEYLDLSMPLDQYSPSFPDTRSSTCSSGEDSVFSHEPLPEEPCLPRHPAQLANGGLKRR

[26] = molecular target: Tyrosine-protein kinase ABL1 (Homo sapiens, UniProt P00519)
[27] = molecular target: Dual specificity tyrosine-phosphorylation-regulated kinase 1A (Homo sapiens, UniProt Q13627);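 further: measured against DYRK1A as one member of a broad kinome profiling panel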
[28] = molecular target: Mitogen-activated protein kinase 8 (Homo sapiens, UniProt P45983);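 further: value comes from one member of a kinome-wide kinase profiling panel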
[29] = molecular target: Insulin-like growth factor 1 receptor (Homo sapiens, UniProt P08069); assay: Navigating the Kinome. Panel member name: IGF1R
[30] = molecular target: Mast/stem cell growth factor receptor Kit (Homo sapiens, UniProt P10721);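 further: KIT entry within a kinase panel assay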
[31] = molecular target: Tyrosine-protein kinase Lyn (Homo sapiens, UniProt P07948);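 further: lyn as one member of a kinase panel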
[32] = molecular target: Vascular endothelial growth factor receptor 3 (Homo sapiens, UniProt P35916);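 further: value from a kinome-wide profiling panel, with FLT4 as the panel member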
[33] = molecular target: Serine/threonine-protein kinase PAK 1 (Homo sapiens, UniProt Q13153)

SMILES	Ki [1]	Ki [2]	Ki [3]	Ki [5]	Ki [6]	Ki [7]	Ki [8]	Ki [9]	Ki [10]	Ki [11]	Ki [12]	Ki [13]	Ki [14]	Ki [16]	Ki [17]	Ki [18]	Ki [19]	Ki [20]	Ki [21]	Ki [22]	also measured
CN(C)C1CCC(Nc2nc(Cl)cc(-c3c[nH]c4ncccc34)n2)CC1 (stereo unspecified)	50.1 nM (active)	> 3.16 µM (inactive)	79.4 nM (active)	> 6.31 µM (inactive)	79.4 nM (active)	1.26 µM (active)	63.1 nM (active)	63.1 nM (active)	1.26 nM (active)	1.58 µM (active)	1.26 µM (active)	501 nM (active)	1.58 µM (active)	794 nM (active)	> 3.98 µM (inactive)	> 1.58 µM (inactive)	1.58 µM (active)	251 nM (active)	25.1 nM (active)	> 3.98 µM (inactive)	Ki [4]: 2.51 nM (active); Ki [15]: > 3.98 µM (inactive); Ki [23]: 1.58 µM (active); Ki [24]: 794 nM (active); Ki [25]: > 3.98 µM (inactive); Ki [26]: > 3.98 µM (inactive); Ki [27]: 39.8 nM (active); Ki [28]: 1 µM (active); Ki [29]: > 2.51 µM (inactive); Ki [30]: > 3.98 µM (inactive)
NC(COc1cncc(-c2cc3ccncc3s2)c1)Cc1c[nH]c2ccccc12 (stereo unspecified)	5010 nM (active)	> 2.51 µM (inactive)	316 nM (active)	> 0.794 µM (inactive)	794 nM (active)	1 µM (active)	25.1 nM (active)	63.1 nM (active)	20 nM (active)	> 5.01 µM (inactive)	0.794 µM (active)	> 2510 nM (inactive)	0.251 µM (active)	794 nM (active)	0.316 µM (active)	> 6.31 µM (inactive)	> 1.58 µM (inactive)	79.4 nM (active)	10 nM (active)	> 3.98 µM (inactive)	Ki [31]: > 1.58 µM (inactive); Ki [32]: 100 nM (active); Ki [23]: 0.0126 µM (active); Ki [24]: 25.1 nM (active); Ki [25]: 2.51 µM (active); Ki [33]: 794 nM (active); Ki [26]: > 0.631 µM (inactive); Ki [27]: 3.98 nM (active); Ki [28]: 2.51 µM (active); Ki [29]: > 1 µM (inactive); Ki [30]: 0.631 µM (active)
